Tests used:
Assay type in all cases: in vivo
Zea mays (ZEAMX) [1] = experiment: Herbicidal efficacy, post-emergence application (glasshouse); settings: evaluated visually after 13 days, 100=total damage, 0=no damage; for plant injury at 250 g/ha: Zea mays, 312 h, read-out: percentage phytotoxicity to the plant, ZEAMX
Procedure: (§1) Seeds of a variety of test species [Ipomoea hederacea (IPOHE); Zea mays (ZEAMX); Echinochloa crus-galli (ECHCG); Setaria faberi (SETFA); Abutilon theophrasti (ABUTH); Amaranthus retroflexus (AMARE)] were sown in standard sterilised soil in pots. After cultivation for one day (pre-emergence) or after 8 days cultivation (post-emergence) under controlled conditions in a glasshouse (at 24/16° C., day/night; 14 hours light; 65% humidity), the plants were sprayed with an aqueous spray solution derived from the formulation of the technical active ingredient in acetone/water (50:50) solution containing 0.5% Tween 20 (polyoxyethelyene sorbitan monolaurate, CAS RN 9005-64-5), subsequently diluted in water, and sprayed to give the stated application rate.
(§2) The test plants were then grown under controlled conditions in a glasshouse (at 24/16° C., day/night; 14 hours light; 65% humidity) and watered twice daily.
(§3) After 13 days for pre and post-emergence, the test was evaluated visually for percentage phytotoxicity to the plant (where 100=total damage to plant; 0=no damage to plant).

[2] = system: Abutilon theophrasti (ABUTH); experiment: as above; settings: evaluated visually after 13 days, 100=total damage, 0=no damage; for pest or weed control at 250 g/ha: Abutilon theophrasti, 312 h, read-out: percentage phytotoxicity to the plant, ABUTH
Procedure: as §1, §2, §3

[3] = system: Echinochloa crus-galli (ECHCG); experiment: as above; settings: evaluated visually after 13 days, 100=total damage, 0=no damage; for pest or weed control at 250 g/ha: Echinochloa crus-galli, 312 h, read-out: percentage phytotoxicity to the plant, ECHCG
Procedure: as §1, §2, §3

Setaria faberi (SETFA) [4] = experiment: as above; settings: evaluated visually after 13 days, 100=total damage, 0=no damage; for pest or weed control at 250 g/ha: Setaria faberi, 312 h, read-out: percentage phytotoxicity to the plant, SETFA
Procedure: as §1, §2, §3

[5] = system: Amaranthus retroflexus (AMARE); experiment: as above; settings: evaluated visually after 13 days, 100=total damage, 0=no damage; for pest or weed control at 250 g/ha: Amaranthus retroflexus, 312 h, read-out: percentage phytotoxicity to the plant, AMARE
Procedure: as §1, §2, §3

[6] = system: Ipomoea hederacea (IPOHE); experiment: as above; settings: evaluated visually after 13 days, 100=total damage, 0=no damage; for pest or weed control at 250 g/ha: Ipomoea hederacea, 312 h, read-out: percentage phytotoxicity to the plant, IPOHE
Procedure: as §1, §2, §3

Zea mays (ZEAMX) [7] = experiment: Herbicidal efficacy, pre-emergence application (glasshouse); settings: evaluated visually after 13 days, 100=total damage, 0=no damage; for plant injury at 250 g/ha: Zea mays, 312 h, read-out: percentage phytotoxicity to the plant, ZEAMX
Procedure: as §1, §2, §3

[8] = system: Abutilon theophrasti (ABUTH); experiment: as above; settings: evaluated visually after 13 days, 100=total damage, 0=no damage; for pest or weed control at 250 g/ha: Abutilon theophrasti, 312 h, read-out: percentage phytotoxicity to the plant, ABUTH
Procedure: as §1, §2, §3

[9] = system: Echinochloa crus-galli (ECHCG); experiment: as above; settings: evaluated visually after 13 days, 100=total damage, 0=no damage; for pest or weed control at 250 g/ha: Echinochloa crus-galli, 312 h, read-out: percentage phytotoxicity to the plant, ECHCG
Procedure: as §1, §2, §3

Setaria faberi (SETFA) [10] = experiment: as above; settings: evaluated visually after 13 days, 100=total damage, 0=no damage; for pest or weed control at 250 g/ha: Setaria faberi, 312 h, read-out: percentage phytotoxicity to the plant, SETFA
Procedure: as §1, §2, §3

[11] = system: Amaranthus retroflexus (AMARE); experiment: as above; settings: evaluated visually after 13 days, 100=total damage, 0=no damage; for pest or weed control at 250 g/ha: Amaranthus retroflexus, 312 h, read-out: percentage phytotoxicity to the plant, AMARE
Procedure: as §1, §2, §3

[12] = system: Ipomoea hederacea (IPOHE); experiment: as above; settings: evaluated visually after 13 days, 100=total damage, 0=no damage; for pest or weed control at 250 g/ha: Ipomoea hederacea, 312 h, read-out: percentage phytotoxicity to the plant, IPOHE
Procedure: as §1, §2, §3

Row | Compound | plant injury at 250 g/ha (Zea mays (ZEAMX) [1]) [%] | pest or weed control at 250 g/ha [2] [%] | pest or weed control at 250 g/ha [3] [%] | pest or weed control at 250 g/ha (Setaria faberi (SETFA) [4]) [%] | pest or weed control at 250 g/ha [5] [%] | pest or weed control at 250 g/ha [6] [%] | plant injury at 250 g/ha (Zea mays (ZEAMX) [7]) [%] | pest or weed control at 250 g/ha [8] [%] | pest or weed control at 250 g/ha [9] [%] | pest or weed control at 250 g/ha (Setaria faberi (SETFA) [10]) [%] | pest or weed control at 250 g/ha [11] [%] | pest or weed control at 250 g/ha [12] [%] | also measured
1 | CN1C[C@H](c2cc(C(F)(F)F)n(C)n2)[C@@H](C(=O)Nc2ccc(F)c(F)c2F)C1=O [Compound 2.7, (3S,4R)-1-methyl-4-[1-methyl-5-(trifluoromethyl)pyrazol-3-yl]-2-oxo-N-(2,3,4-trifluorophenyl)pyrrolidine-3-carboxamide] | 80 | 0 | 80 | 80 | 50 | 0 | 90 | 10 | 100 | 90 | 20 | 20 | 
2 | CN1C[C@H](c2cc(C(F)(F)F)n(C)n2)[C@@H](C(=O)Nc2cccc(F)c2OC(F)(F)F)C1=O [Compound 2.4, (3S,4R)-N-[3-fluoro-2-(trifluoromethoxy)phenyl]-1-methyl-4-[1-methyl-5-(trifluoromethyl)pyrazol-3-yl]-2-oxo-pyrrolidine-3-carboxamide] | 0 | 0 | 70 | 70 | 0 | 0 | 30 | 0 | 90 | 90 | 0 | 50 | 
3 | (3S,4R)-N-[2-(1,1-difluoroethyl)-3-fluoro-phenyl]-1-methyl-4-[1-methyl-5-(trifluoromethyl)pyrazol-3-yl]-2-oxo-pyrrolidine-3-carboxamide [Compound 2.12] |  |  |  |  |  |  |  |  |  |  |  |  | percentage phytotoxicity to the plant, ZEAMX (Zea mays (ZEAMX) [1]; 250 g/ha): 80%; percentage phytotoxicity to the plant, ABUTH ([2]; 250 g/ha): 0%; percentage phytotoxicity to the plant, ECHCG ([3]; 250 g/ha): 90%; percentage phytotoxicity to the plant, SETFA (Setaria faberi (SETFA) [4]; 250 g/ha): 90%; percentage phytotoxicity to the plant, AMARE ([5]; 250 g/ha): 0%; percentage phytotoxicity to the plant, IPOHE ([6]; 250 g/ha): 50%; percentage phytotoxicity to the plant, ZEAMX (Zea mays (ZEAMX) [7]; 250 g/ha): 90%; percentage phytotoxicity to the plant, ABUTH ([8]; 250 g/ha): 0%; percentage phytotoxicity to the plant, ECHCG ([9]; 250 g/ha): 90%; percentage phytotoxicity to the plant, SETFA (Setaria faberi (SETFA) [10]; 250 g/ha): 90%; percentage phytotoxicity to the plant, AMARE ([11]; 250 g/ha): 0%; percentage phytotoxicity to the plant, IPOHE ([12]; 250 g/ha): 70%
4 | CN1C[C@H](c2cc(C(F)(F)F)n(C)n2)[C@@H](C(=O)Nc2cccc(F)c2C(F)(F)F)C1=O [Compound 2.5, (3S,4R)-N-[3-fluoro-2-(trifluoromethyl)phenyl]-1-methyl-4-[1-methyl-5-(trifluoromethyl)pyrazol-3-yl]-2-oxo-pyrrolidine-3-carboxamide] | 10 | 0 | 80 | 80 | 30 | 0 | 20 | 0 | 90 | 90 | 0 | 10 | 
5 | CN1C[C@H](c2cnn(C)c2C(F)(F)F)[C@@H](C(=O)Nc2cccc(F)c2F)C1=O [Compound 2.15, (3S,4S)-N-(2,3-difluorophenyl)-1-methyl-4-[1-methyl-5-(trifluoromethyl)pyrazol-4-yl]-2-oxo-pyrrolidine-3-carboxamide] | 30 | 0 | 80 | 80 | 0 | 40 | 40 | 40 | 100 | 100 | 0 | 20 | 
6 | CN1C[C@H](c2cc(C(F)(F)F)n(C)n2)[C@@H](C(=O)Nc2cccc(F)c2OC(F)F)C1=O [Compound 2.10, (3S,4R)-N-[2-(difluoromethoxy)-3-fluoro-phenyl]-1-methyl-4-[1-methyl-5-(trifluoromethyl)pyrazol-3-yl]-2-oxo-pyrrolidine-3-carboxamide] | 80 | 0 | 80 | 80 | 0 | 30 | 40 | 0 | 90 | 90 | 0 | 20 | 
7 | CN1C[C@H](c2cc(C(F)(F)F)n(C)n2)[C@@H](C(=O)Nc2ccc(F)nc2F)C1=O [Compound 2.8, (3S,4R)-N-(2,6-difluoro-3-pyridyl)-1-methyl-4-[1-methyl-5-(trifluoromethyl)pyrazol-3-yl]-2-oxo-pyrrolidine-3-carboxamide] | 80 | 0 | 80 | 80 | 0 | 30 | 40 | 0 | 90 | 90 | 20 | 0 | 
8 | CN1C[C@H](c2cc(C(F)(F)F)n(C)n2)[C@@H](C(=O)Nc2ccccc2F)C1=O [Compound 2.2, (3S,4R)-N-(2-fluorophenyl)-1-methyl-4-[1-methyl-5-(trifluoromethyl)pyrazol-3-yl]-2-oxo-pyrrolidine-3-carboxamide] | 50 | 0 | 90 | 90 | 0 | 0 | 20 | 0 | 90 | 90 | 20 | 0 | 
9 | CCc1ccccc1NC(=O)[C@H]1C(=O)N(C)C[C@@H]1c1cc(C(F)(F)F)n(C)n1 [Compound 2.11, (3S,4R)-N-(2-ethylphenyl)-1-methyl-4-[1-methyl-5-(trifluoromethyl)pyrazol-3-yl]-2-oxo-pyrrolidine-3-carboxamide] | 0 | 0 | 80 | 80 | 20 | 0 | 20 | 0 | 90 | 90 | 70 | 0 | 
10 | CN1C[C@H](c2cc(C(F)(F)F)n(C)n2)[C@@H](C(=O)Nc2ccc(F)cc2F)C1=O [Compound 2.3, (3S,4R)-N-(2,4-difluorophenyl)-1-methyl-4-[1-methyl-5-(trifluoromethyl)pyrazol-3-yl]-2-oxo-pyrrolidine-3-carboxamide] | 60 | 60 | 70 | 70 | 10 | 10 | 60 | 70 | 90 | 90 | 50 | 10 | 
11 | COc1c(F)cccc1NC(=O)[C@H]1C(=O)N(C)C[C@@H]1c1cc(C(F)(F)F)n(C)n1 [Compound 2.6, (3S,4R)-N-(3-fluoro-2-methoxy-phenyl)-1-methyl-4-[1-methyl-5-(trifluoromethyl)pyrazol-3-yl]-2-oxo-pyrrolidine-3-carboxamide] | 80 | 0 | 70 | 70 | 0 | 50 | 80 | 0 | 90 | 90 | 0 | 20 | 

Source: US11472792B2, “Herbicidal mixtures” (SYNGENTA CROP PROTECTION AG, priority 2019, dated 2022)
